Assay: Crystal formation in acifluorfen solution with co-solvents after cold storage (Example 2)
Format: physicochemical
Conditions: for Crystal Formation (%): stored at 5°C for 4 days, read at room temperature; for inhibition of precipitate: result in words
Experimental: An aqueous solution having a concentration of 46.8 % acifluorfen (sodium salt, Rohm and Haas, Inc.; significant crystallization observed) was heated to about 50°C to 60°C and stirred until the crystals dissolved (about ten hours). The solution was allowed to cool to room temperature. The dispersants were separately added to the solutions containing the acifluorfen to form a 1.0% solution (by weight) of the dispersant. The resulting samples were stored at 5°C for four days.
After four days, the samples were removed from storage and allowed to reach room temperature and the volume occupied by crystals was calculated (visual estimates) . The results were obtained by observation using a polarized Nikon Optiphot-2 Pol microscope.
Co-Solvents were evaluated for their ability to inhibit precipitation of acifluorfen in aqueous solutions. The experiment was carried-out using the same steps as described for the dispersants of Example 1. The co-solvents were evaluated at 5% and 10% by total weight of the solution. The formulations were stored at 5°C for 4 days and the percent crystal volume recorded after the temperature reached room temperature. […]

Compound	Crystal Formation (%) (co-solvent Amount 5 %)	Crystal Formation (%) (co-solvent Amount 10 %)	inhibition of precipitate
CC(O)CO (centres unmarked) [Propylene Glycol]	10%	80%	–
CCCCOCCO [Butyl Cellosolve]	10%	15%	most significant inhibition
OCCO [Ethylene Glycol]	10%	15%	most significant inhibition
